Results as given in article PMC12735872, “Development of ^18F/^11C-Labeled Pyrrolo-Pyridine/Pyrimidine LRRK2 Selective PET Radioligands” (Pharmaceuticals, 2025).

System: cynomolgus monkey brain
Experiment: In vivo PET imaging in cynomolgus monkeys
Parameters: VT/fp: unit not given beside the values; VT: unit not given here
Excerpt: PET measurements were led using a high-resolution research tomograph (HRRT) from Siemens Molecular Imaging (Knoxville, TN, USA). List mode data were reconstructed using the ordinary Poisson-3D-ordered subset expectation maximization (OP-3D-OSEM) algorithm, with 10 repetitions and 16 subsets while modeling the point spread function (PSF). The in-plane resolution accomplished with OP-3D-OSEM and PSF was 1.5 mm full width at half maximum (FWHM) at the center of the field of view (FOV) and 2.4 mm at 10 cm off-center.
The study was approved by the Animal Ethics Committee of the Swedish Animal Welfare Agency and was performed according to “Guidelines for planning, conducting and documenting experimental research” (Dnr 5.2.18-4170/14 issued on 11 April 2014) of the KI as well as the “Guide for the Care and Use of Laboratory Animals” [26]. NHPs were supplied by the Astrid Fagraeus Laboratory (AFL) of the Swedish Institute for Infectious Disease Control (SMI), Solna, Sweden. Anesthesia was brought by intramuscular injection of ketamine hydrochloride (approximately 10 mg/kg) at AFL and continued with a mixture of sevoflurane (0–8.0%), oxygen, and medical air through endotracheal intubation at the KI PET center. The NHP head was immobilized using a homemade fixation device. Body temperature was maintained with a Bair Hugger model 505 (Arizant Healthcare, Eden Prairie, MN, USA) and monitored via an esophageal thermometer. ECG, heart rate, respiratory rate, blood pressure, and oxygen saturation were continuously examined throughout the experiments. The fluid balance was retained with continuous infusion of saline.
A 6 min transmission scan was performed before the injection of the radioligand using a single Cs-137 source. List mode data was acquired continuously for 93 min following intravenous administration of the radioligand. Images were reconstructed into 38 frames with varying intervals: […].
For all PET measurements, radioligands were administered via intravenous injection. Regions of interest (ROIs) were manually delineated on MRI images for each NHP, for the whole brain, cerebellum, caudate, putamen, thalamus, frontal cortex, temporal cortex, amygdala, posterior cingulate cortex, anterior cingulate cortex, hippocampus, occipital cortex, parietal cortex, ventral striatum, and insula. The summed PET images over the entire duration were co-registered with the individual NHP’s MRI image. After applying the co-registration parameters to the dynamic PET data, time–activity curves were generated for each brain region for every PET measurement. The standardized uptake value (SUV) was calculated for each brain region. The total distribution volume (VT) for all three radioligands were derived using one-tissue compartment (1-TC) and two-tissue compartment (2-TC) models.
On two separate occasions, PET measurements were performed after intravenous administration of GEN-7915 or PFE-360 with a slow infusion in one NHP (NHP2). The infusion lasted for 2 min, starting 30 min before PET scanning. The pretreatment formulations were prepared by dissolving it in DMSO (5%), Kolliphor EL (15%), and PBS (80%), and the pH of the final formulation was approximately 4.5–5.0. An automated blood sampling system (ABSS) measured continuous radioactivity for the first 3 min following the radioligand injection, while manual blood samples were taken at 4, 15, 30, 60, and 90 min post-injection to measure the radioactivity and metabolism.

[1] = ACC, 1-TC model, pretreatment GEN-7915 (40 mg/kg)
[2] = ACC, 1-TC model, pretreatment PFE-360 (0.5 mg/kg)
[3] = ACC, 2-TC model, pretreatment GEN-7915 (40 mg/kg)
[4] = ACC, 2-TC model, pretreatment PFE-360 (0.5 mg/kg)
[5] = AMY, 1-TC model, pretreatment GEN-7915 (40 mg/kg)
[6] = AMY, 1-TC model, pretreatment PFE-360 (0.5 mg/kg)
[7] = AMY, 2-TC model, pretreatment GEN-7915 (40 mg/kg)
[8] = AMY, 2-TC model, pretreatment PFE-360 (0.5 mg/kg)
[9] = CAU, 1-TC model, pretreatment GEN-7915 (40 mg/kg)
[10] = CAU, 1-TC model, pretreatment PFE-360 (0.5 mg/kg)
[11] = CAU, 2-TC model, pretreatment GEN-7915 (40 mg/kg)
[12] = CAU, 2-TC model, pretreatment PFE-360 (0.5 mg/kg)
[13] = CB, 1-TC model, pretreatment GEN-7915 (40 mg/kg)
[14] = CB, 1-TC model, pretreatment PFE-360 (0.5 mg/kg)
[15] = CB, 2-TC model, pretreatment GEN-7915 (40 mg/kg)
[16] = CB, 2-TC model, pretreatment PFE-360 (0.5 mg/kg)
[17] = FC, 1-TC model, pretreatment GEN-7915 (40 mg/kg)
[18] = FC, 1-TC model, pretreatment PFE-360 (0.5 mg/kg)
[19] = FC, 2-TC model, pretreatment GEN-7915 (40 mg/kg)
[20] = FC, 2-TC model, pretreatment PFE-360 (0.5 mg/kg)
[21] = PUT, 1-TC model, pretreatment GEN-7915 (40 mg/kg)
[22] = PUT, 1-TC model, pretreatment PFE-360 (0.5 mg/kg)
[23] = PUT, 2-TC model, pretreatment GEN-7915 (40 mg/kg)
[24] = PUT, 2-TC model, pretreatment PFE-360 (0.5 mg/kg)
[25] = THA, 1-TC model, pretreatment GEN-7915 (40 mg/kg)
[26] = THA, 1-TC model, pretreatment PFE-360 (0.5 mg/kg)
[27] = THA, 2-TC model, pretreatment GEN-7915 (40 mg/kg)
[28] = THA, 2-TC model, pretreatment PFE-360 (0.5 mg/kg)

C[C@@H]1C[C@@H]([18F])CN1c1c(C#N)c2c(N)ncnc2n1C [[^18F]2, 4-Amino-6-((2R,4R)-4-[^18F]fluoro-2-methyl Pyrrolidin-1-yl)-7-methyl-7H-pyrrolo[2,3-d]pyrimidine-5-carbonitrile]
Brain uptake at peak (PET, iv, baseline): 3.8–4.4 %ID | Brain washout (PET, iv, baseline): fast washout | Regional distribution of brain uptake (PET, iv, baseline): relatively uniform distribution across all the brain regions | Time to reach half the peak brain level (PET, iv, baseline): ≤ 20 min

C[C@@H]1C[C@@H]([18F])CN1c1c(C#N)c2c(N)nccc2n1C [[^18F]1, 4-Amino-2-((2R,4R)-4-[^18F]fluoro-2-methylpyrrolidin-1-yl)-1-methyl-1H-pyrrolo[3,2-c]pyridine-3-carbonitrile]
VT (ACC, 1-TC model, Baseline): 6.03 | VT/fp (ACC, 1-TC model, Baseline): 17.7 | VT [1]: 8.50 | VT/fp [1]: 20.9 | VT [2]: 9.28 | VT/fp [2]: 20.2 | VT (ACC, 2-TC model, Baseline): 6.04 | VT [3]: 8.71 | VT/fp [3]: 21.4 | VT [4]: 9.39 | VT/fp [4]: 20.4 | VT (AMY, 1-TC model, Baseline): 6.15 | VT/fp (AMY, 1-TC model, Baseline): 18.1 | VT [5]: 7.29 | VT/fp [5]: 17.9 | VT [6]: 7.56 | VT/fp [6]: 16.4 | VT (AMY, 2-TC model, Baseline): 6.23 | VT/fp (AMY, 2-TC model, Baseline): 18.3 | VT [7]: 7.36 | VT/fp [7]: 18.1 | VT [8]: 7.78 | VT/fp [8]: 16.9 | VT (CAU, 1-TC model, Baseline): 5.83 | VT/fp (CAU, 1-TC model, Baseline): 17.2 | VT [9]: 7.78 | VT/fp [9]: 19.1 | VT [10]: 8.50 | VT/fp [10]: 18.5 | VT (CAU, 2-TC model, Baseline): 5.87 | VT/fp (CAU, 2-TC model, Baseline): 17.3 | VT [11]: 7.89 | VT/fp [11]: 19.4 | VT [12]: 8.50 | VT/fp [12]: 18.5 | VT (CB, 1-TC model, Baseline): 4.13 | VT/fp (CB, 1-TC model, Baseline): 12.2 | VT [13]: 5.03 | VT/fp [13]: 12.3 | VT [14]: 5.67 | VT/fp [14]: 12.3 | VT (CB, 2-TC model, Baseline): 4.41 | VT/fp (CB, 2-TC model, Baseline): 13.0 | VT [15]: 5.08 | VT/fp [15]: 12.5 | VT [16]: 5.69 | VT/fp [16]: 12.4 | VT (FC, 1-TC model, Baseline): 5.26 | VT/fp (FC, 1-TC model, Baseline): 15.5 | VT [17]: 6.53 | VT/fp [17]: 16.0 | VT [18]: 7.68 | VT/fp [18]: 16.7 | VT (FC, 2-TC model, Baseline): 5.26 | VT/fp (FC, 2-TC model, Baseline): 15.5 | VT [19]: 6.74 | VT/fp [19]: 16.5 | VT [20]: 7.72 | VT/fp [20]: 16.8 | Brain uptake (PET, iv, baseline): > 3 %ID | Brain washout (PET, iv, baseline): rapid washout | Regional distribution of brain uptake (PET, iv, baseline): regional differences in uptake | VT (PUT, 1-TC model, Baseline): 5.71 | VT/fp (PUT, 1-TC model, Baseline): 16.8 | VT [21]: 7.56 | VT/fp [21]: 18.6 | VT [22]: 8.25 | VT/fp [22]: 17.9 | VT (PUT, 2-TC model, Baseline): 5.89 | VT/fp (PUT, 2-TC model, Baseline): 17.3 | VT [23]: 7.71 | VT/fp [23]: 18.9 | VT [24]: 8.25 | VT/fp [24]: 17.9 | VT (THA, 1-TC model, Baseline): 4.80 | VT/fp (THA, 1-TC model, Baseline): 14.1 | VT [25]: 6.05 | VT/fp [25]: 14.9 | VT [26]: 6.68 | VT/fp [26]: 14.5 | VT (THA, 2-TC model, Baseline): 4.95 | VT/fp (THA, 2-TC model, Baseline): 14.6 | VT [27]: 6.18 | VT/fp [27]: 15.2 | VT [28]: 6.68 | VT/fp [28]: 14.5
